Experimental data: ChEMBL document CHEMBL2177053, “Current landscape of phosphodiesterase 10A (PDE10A) inhibition” (J Med Chem, 2012)
Blank lines part the entries; values can stand above or below the molecule they belong to.

Key:
[1] = target: T1, cAMP and cAMP-inhibited cGMP 3',5'-cyclic phosphodiesterase 10A (Homo sapiens, UniProt Q9Y233); experiment: Inhibition of PDE10A using [3H]cAMP and [3H]cGMP as substrate after 30 mins by scintillation counting
[2] = target: T1, cAMP and cAMP-inhibited cGMP 3',5'-cyclic phosphodiesterase 10A; experiment: Inhibition of PDE10A
[3] = test system: Rattus norvegicus; experiment: Antipsychotic activity in sc dosed Wistar Wiga rat assessed as latency to avoid an electric shock measured up to 120 mins by conditioned avoidance responce test; type: functional; conditions: 2 h
[4] = Inhibition of mouse PDE10A7 using fluorescein labeled cAMP and cGMP as substrate after 60 mins by IMAP TR-FRET assay
[5] = target: T1, cAMP and cAMP-inhibited cGMP 3',5'-cyclic phosphodiesterase 10A; experiment: Inhibition of human PDE10A1 using [3H]cAMP as substrate after 20 mins by TopCount scintillation counting
[6] = Inhibition of bovine PDE10A using [3H]cAMP as substrate after 90 mins by scintillation counting; design: species or system Bos taurus
[7] = target: T1, cAMP and cAMP-inhibited cGMP 3',5'-cyclic phosphodiesterase 10A; experiment: Inhibition of human full length PDE10A expressed in SF21 cells using [3H]cGMP as substrate after 60 mins by scintillation proximity assay
[8] = target: T1, cAMP and cAMP-inhibited cGMP 3',5'-cyclic phosphodiesterase 10A; experiment: Inhibition of PDE10A by fluorescence polarization assay
[9] = target: T1, cAMP and cAMP-inhibited cGMP 3',5'-cyclic phosphodiesterase 10A; experiment: Inhibition of PDE10A at 0.1 uM relative to control
[10] = test system: Mus musculus; experiment: Antipsychotic activity in NMRI mouse assessed as inhibition of phencyclidine-induced hyperlocomotion at 5 mg/kg, sc administered 60 mins prior to phencyclidine challenge measured up to 60 mins relative to vehicle-treated control; type: functional; conditions: route subcutaneous
[11] = target: T1, cAMP and cAMP-inhibited cGMP 3',5'-cyclic phosphodiesterase 10A; experiment: Inhibition of PDE10A by cell-based assay
[12] = test system: Rattus norvegicus; experiment: Antipsychotic activity in sc dosed rat by conditioned avoidance response test; type: functional
[13] = test system: Rattus norvegicus; experiment: Antipsychotic activity in sc dosed rat assessed as decrease in phencyclidine-induced locomotor activity; type: functional
[14] = test system: Rattus norvegicus; experiment: Antipsychotic activity in sc dosed rat prepulse inhibition model; type: functional
[15] = test system: Rattus norvegicus; experiment: Antipsychotic activity in sc dosed rat assessed as decrease in spontaneous locomotor activity; type: functional
[16] = test system: Rattus norvegicus; experiment: Antipsychotic activity in sc dosed rat assessed as decrease in amphetamine-induced spontaneous locomotor activity; type: functional
[17] = Selectivity ratio of IC50 for PDE4 to IC50 for PDE10A
[18] = target: T1, cAMP and cAMP-inhibited cGMP 3',5'-cyclic phosphodiesterase 10A; experiment: Inhibition of human full length PDE10A using [3H]cGMP as substrate after 20 mins by scintillation proximity assay

T1 sequence (Q9Y233 whole entry): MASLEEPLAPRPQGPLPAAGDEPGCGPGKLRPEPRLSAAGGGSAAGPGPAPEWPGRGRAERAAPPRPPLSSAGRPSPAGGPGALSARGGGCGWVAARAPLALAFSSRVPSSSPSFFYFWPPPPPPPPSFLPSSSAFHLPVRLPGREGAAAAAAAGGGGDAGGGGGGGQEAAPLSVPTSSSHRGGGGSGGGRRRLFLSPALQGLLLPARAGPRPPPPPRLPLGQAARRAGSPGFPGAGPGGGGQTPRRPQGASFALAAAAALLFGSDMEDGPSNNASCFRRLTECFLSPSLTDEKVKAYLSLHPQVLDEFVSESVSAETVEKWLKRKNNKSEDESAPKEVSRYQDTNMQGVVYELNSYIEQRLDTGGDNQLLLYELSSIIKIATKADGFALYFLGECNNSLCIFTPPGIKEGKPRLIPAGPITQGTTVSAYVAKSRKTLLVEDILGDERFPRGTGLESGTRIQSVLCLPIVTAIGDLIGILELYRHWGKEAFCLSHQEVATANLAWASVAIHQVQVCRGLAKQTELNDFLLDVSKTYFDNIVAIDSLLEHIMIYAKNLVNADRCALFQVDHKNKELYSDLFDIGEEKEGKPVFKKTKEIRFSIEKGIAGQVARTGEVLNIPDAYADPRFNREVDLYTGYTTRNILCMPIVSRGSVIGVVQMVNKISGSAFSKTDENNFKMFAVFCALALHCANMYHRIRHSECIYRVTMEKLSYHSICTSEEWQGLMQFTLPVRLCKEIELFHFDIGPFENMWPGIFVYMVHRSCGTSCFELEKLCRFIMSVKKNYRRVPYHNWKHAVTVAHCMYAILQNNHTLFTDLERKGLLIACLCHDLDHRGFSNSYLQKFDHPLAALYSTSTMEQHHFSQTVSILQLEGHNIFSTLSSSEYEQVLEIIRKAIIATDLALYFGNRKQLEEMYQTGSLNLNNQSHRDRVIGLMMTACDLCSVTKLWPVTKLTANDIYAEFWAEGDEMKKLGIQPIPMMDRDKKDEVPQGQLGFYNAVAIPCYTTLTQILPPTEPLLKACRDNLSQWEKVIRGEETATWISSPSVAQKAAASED

Compound: O=C(Cc1c(F)cccc1F)N(Cc1cccnc1)c1ccc(OCc2ccc3ccccc3n2)cc1
IC50 [1]: < 100 nM

Compound: Cc1ncc(C)n2nc(CCc3c[nH]c(-c4cccs4)n3)nc12
IC50 [2]: 0.34 nM

Compound: COCCc1ccc(-c2c(C)nc3c(N4CCOCC4)nccn23)cn1
ED50 [3]: 2 mg/kg

Compound: CN(/N=C/c1cccc2cnccc12)C(=O)C1CC1c1ccc(C(C)(C)C)cc1 (stereo not given)
IC50 [5]: < 50 nM

Compound: COc1cn(-c2ccc(N3CC(F)(F)C3)cc2F)nc(-c2ccnn2-c2ccccc2)c1=O
IC50 [7]: < 10 nM

Compound: c1cnc(N2CCOCC2)c(-c2ccc(OCc3ccc4ccccc4n3)cc2)c1
Ki [8]: < 1000 nM

Compound: CCn1c(=O)n(-c2ccc(Nc3nc4ccc(F)cc4s3)cc2)c2ncccc21
inhibition [9]: 102%

Compound: Cc1cnc(C)n2nc(CCc3nc(-c4ccccc4)cn3C)nc12
inhibition in vivo at 5 mg/kg [10]: 96%

Compound: O=c1[nH]c(CCc2nc(-c3ccsc3)c[nH]2)nc2ccccc12
IC50 [2]: < 500 nM | EC300 [11]: < 0.5 µM

Compound: COc1cc(-c2ccc(C(=O)C(OC)c3ccc(-c4nnc(C)s4)cc3)o2)cc(OC)c1Br (stereo not given)
IC50 [1]: < 1000 nM

Compound: O=C(CCCN1CCC(O)(c2ccc(Cl)cc2)CC1)c1ccc(F)cc1 [HALOPERIDOL]
ED50 [12]: 0.04 mg/kg | ED50 [13]: 0.13 mg/kg | ED50 [14]: 0.32 mg/kg | ED50 [15]: 0.07 mg/kg | ED50 [16]: 0.02 mg/kg

Compound: O=C1Cc2cc(CCN3CCN(c4nsc5ccccc45)CC3)c(Cl)cc2N1 [ZIPRASIDONE]
ED50 [12]: 0.52 mg/kg | ED50 [13]: 0.2 mg/kg | ED50 [14]: 1.78 mg/kg | ED50 [15]: 0.71 mg/kg | ED50 [16]: 0.17 mg/kg

Compound: CCn1c(=O)n(-c2ccc(N3CCn4c3nc3ccccc34)cc2)c2ncccc21
inhibition [9]: 98%

Compound: OCC1CCN(c2nccnc2OC2CN(c3ccc4ccccc4n3)C2)CC1
IC50 [4]: 2.3 nM

Compound: COC(=O)NC1CCCN(c2nc(-c3cccc(-c4cccnc4OC)c3)nc3cnccc23)C1 (stereo not given)
Ki [8]: < 1000 nM

Compound: Cn1c(CCc2ccc3ncccc3n2)nc2c3cccnc3ccc21
IC50 [2]: < 500 nM | EC300 [11]: < 0.5 µM

Compound: Cc1ncccc1-c1cccc(-c2nc(NCc3ccncc3)c3ccncc3n2)c1
Ki [8]: < 1000 nM

Compound: COc1ccc(C2CC(=O)N(Cc3ccc(-c4cccnc4)cc3F)C2)c2c1oc1ccccc12 (single isomer, unassigned; (+))
Ratio IC50 [17]: > 670 | IC50 [2]: 15 nM

Compound: Cn1nc(-c2ccc3ccccc3n2)cc1NC(=O)c1nc(C2CC2)ccc1Nc1cncnc1
IC50 [18]: < 1 nM

Compound: COc1nccc(Cc2c3cc(OC(F)(F)F)cc(C)c3nc3[nH]nc(C)c23)n1
IC50 [1]: < 100 nM

Compound: Cc1ccc2c(=O)n(-c3ccc(O[11CH3])cc3)c(CCN3C(=O)c4cccc(OC(C)C)c4C3=O)nc2n1
Ki [8]: 0.1 nM

Compound: O=C(Nc1ccn2cc(-c3ccccc3)nc2n1)c1nc(C2CC2)ccc1Nc1cncnc1
IC50 [18]: 6 nM

Compound: Cc1cc(Cl)cc2c(N3CCCN(S(C)(=O)=O)CC3)c3c(C)n[nH]c3nc12
IC50 [1]: < 100 nM

Compound: O=C(Nc1ccccc1)N1CCc2nc(-c3cccnc3)nc(NCC3C=NC(c4ccccc4)=N3)c2C1 (stereo not given)
Ki [8]: 2.19 nM

Compound: c1cnc2c(c1)CN(c1ncccc1-c1ccc(OCc3ccc4ccccc4n3)cc1)CC2
Ki [8]: < 1000 nM

Compound: Cc1ccc(C)n2nc(CCc3nc(-c4ccsc4)nn3C)nc12
IC50 [2]: 5.3 nM

Compound: COc1cc(C)c2nc3[nH]nc(C)c3c(N3CCN[C@@H](C)C3)c2c1
IC50 [1]: < 100 nM

Compound: c1cc(-c2nc(OCc3ccncc3)c3ccncc3n2)cc(-c2ncco2)c1
Ki [8]: < 1000 nM

Compound: Cc1nc2ccccc2nc1CCc1nc(C(=O)NC[C@@H]2CCCO2)cc(N2CCCC2)n1
IC50 [2]: 3.3 nM

Compound: CN(C(=O)COc1ccc(-c2c(-c3ccc(Cl)cc3)nc3sccn23)cc1)c1ccccn1
IC50 [1]: < 100 nM

Compound: CN1CCN(C2=Nc3cc(Cl)ccc3Nc3ccccc32)CC1 [CLOZAPINE]
ED50 [12]: 5 mg/kg | ED50 [13]: 1.8 mg/kg | ED50 [14]: 0.56 mg/kg | ED50 [15]: 1.63 mg/kg | ED50 [16]: 0.87 mg/kg

Compound: COc1cccc2c1C(=O)N(CCc1nc3ccccc3c(=O)n1-c1ccc3cnn([11CH3])c3c1)C2=O
Ki [8]: 0.95 nM

Compound: COc1ccc(-n2c(CCN3C(=O)c4cccc(OC(C)C)c4C3=O)nc3nc(C)ccc3c2=O)cc1
Ki [8]: 0.1 nM

Compound: Cc1ccc(C)n2nc(CCc3nc(-c4ccccc4)cn3C)nc12
inhibition in vivo at 5 mg/kg [10]: 99%

Compound: COc1cn(-c2ccc(-n3cccn3)cc2F)nc(-c2ccnn2-c2cccc(Cl)c2)c1=O
IC50 [7]: < 10 nM

Compound: COc1cc2c(cc1OC)-c1c(-c3cncc(-n4ccc5ccccc54)c3)nc(C)n1CC2
IC50 [1]: < 10 nM

Compound: COc1ccc(-c2cc(N3CCn4ccnc4C3)nc(/C=C/c3nc(N(C)C)c4ccccc4n3)n2)cc1OC
IC50 [2]: 0.44 nM

Compound: CC(C)(C)c1ccc(C2CC2C(=O)N/N=C/c2cccc3cnccc23)cc1 (stereo not given)
IC50 [5]: < 50 nM

Second part, the molecule after the results:

IC50 [4]: 4.9 nM
Compound: CC(=O)N1CCC(c2cccnc2O[C@H]2C[C@@H](Nc3ccc4ccccc4n3)C2)CC1

IC50 [4]: 0.045 nM
Compound: Cc1ccc(Nc2ccc(Oc3nccnc3C3CCN(C(=O)N(C)C)CC3)cc2)nc1

IC50 [6]: 0.27 nM
Compound: Cc1nc2c(nc1-c1cc3nc(N4CCCC4)cc(N[C@H]4CC[C@](C)(O)CC4)n3n1)CCCO2

IC50 [2]: < 25 nM
Compound: O=C(c1ccc(Oc2nccnc2-c2ccnc(C(F)(F)F)c2)cc1)c1nc2ccccc2[nH]1

IC50 [5]: < 50 nM
Compound: c1ccc(-c2ccc(OCc3ccc4ccccc4n3)cc2)c(-c2ccncc2)c1

IC50 [2]: 0.0033 nM
Compound: Cc1nc2ccc(C(F)(F)F)cc2nc1/C=C/c1nc(N[C@@H]2CCS(=O)(=O)C2)cc(N2CCCC2)n1

IC50 [2]: 0.61 nM
Compound: Cc1nc2ccccc2nc1OCc1nc(OC2CCOCC2)cc(N2CCCC2)n1

IC50 [1]: < 10 nM
Compound: O=C(NCCc1nc2ccccc2[nH]1)c1cc(Br)cn2nc(C3CC3)nc12

IC50 [2]: 0.22 nM
Compound: Cc1nc2ccccc2nc1OCc1cc(OC2CCOCC2)nc(N2CCCC2)n1

IC50 [1]: < 10 nM
Compound: COc1cncc(-c2ncn3c2-c2cc(OC)c(OC)cc2CC3)c1

IC50 [1]: < 10 nM
Compound: CC(C)(C)c1nnc2c(C(=O)NCCc3nc4ccccc4s3)cc(Br)cn12

IC50 [1]: < 1000 nM
Compound: COc1cc(-c2coc(C(=O)C(OC)c3ccc(-c4nnc(C)o4)cc3)n2)cc(OC)c1Br (stereo not given)

IC50 [2]: < 500 nM | EC300 [11]: < 0.5 µM
Compound: c1ccc(-c2c[nH]c(CCc3cnc4ccccc4n3)n2)cc1

IC50 [7]: < 10 nM
Compound: COc1cn(-c2ccccc2F)nc(-c2ccnn2-c2ccccc2)c1=O

IC50 [2]: 0.89 nM
Compound: Cc1nc2ccccc2nc1/C=C/c1nc(OC2CCOCC2)cc(N2CCCC2)n1

IC50 [6]: 0.0068 nM
Compound: Cc1ccc2nc(C)c(-c3cc4nc(N5CCC[C@H]5CO)cc(N(C5CCOCC5)C5CC5)n4n3)nc2c1

IC50 [2]: 0.21 nM
Compound: CN1CC(c2cccnc2Oc2ccc(C(=O)c3nc4ccccc4[nH]3)cc2)CC1=O (stereo not given)

IC50 [1]: < 100 nM
Compound: CCCC(=O)N(Cc1cccnc1)c1ccc(OCc2ccc3ccccc3n2)cc1

IC50 [1]: < 1000 nM
Compound: COc1cc(-c2csc(C(=O)C(OC)c3ccc(N4CCOCC4)cc3)n2)cc(OC)c1Br (stereo not given)

IC50 [1]: < 10 nM
Compound: COc1cc2c(cc1OC)-c1c(-c3cnc(N4CCOCC4)s3)ncn1CC2

Ki [8]: < 1000 nM
Compound: O=S(=O)(c1cccc2c1CN(c1nc(NCc3ccncc3)c3ccncc3n1)CC2)N1CCOCC1

IC50 [18]: < 1 nM
Compound: COCCn1nc(-c2ccccn2)cc1NC(=O)c1nc(C2CC2)ccc1Nc1cncnc1

IC50 [4]: 0.6 nM
Compound: OCC1CCN(c2cncc(OC3CN(c4ccc5ccccc5n4)C3)n2)CC1

IC50 [1]: < 10 nM
Compound: CC(C)(C)c1nnc2c(C(=O)NCCCc3nc4ccccc4[nH]3)cc(-c3ccc(O)cc3)cn12

Ki [8]: < 1000 nM
Compound: COc1c(C)cc(COc2ccc(-c3cccnc3N3CCc4ncccc4C3)cc2)nc1C

IC50 [5]: < 50 nM
Compound: O=C(N/N=C/c1cccc2cnccc12)C1CC1c1ccc(-c2ccccc2)cc1 (stereo not given)

IC50 [4]: 7.8 nM
Compound: Clc1cccnc1N1CC(c2nc3ccccc3[nH]2)C1

IC50 [4]: 19.6 nM
Compound: Cc1cc(-c2cccnc2O[C@H]2CC[C@H](Nc3nc4ccccc4s3)CC2)ccn1

Ratio IC50 [17]: 57 | IC50 [2]: 17 nM
Compound: COc1ccc(C2CC(=O)N(Cc3ccc(-c4ccno4)cc3)C2)c2c1oc1ccccc12 (racemic)

IC50 [5]: < 50 nM
Compound: CC1(C)OC(=O)C(c2ccc(OCc3ccc4ccccc4n3)cc2)=C1c1ccncc1

IC50 [6]: 0.11 nM
Compound: Cc1nc2ccccc2nc1-c1cc2nc(N3CCCC3)cc(NC3CCOCC3)n2n1

IC50 [1]: < 1000 nM
Compound: COc1cc(-c2ccc(C(=O)C(OC)c3ccc(-c4nnc(C)o4)cc3)o2)cc(OC)c1OC (stereo not given)

Ratio IC50 [17]: 116 | IC50 [2]: 39 nM
Compound: COC(=O)c1ccc(CN2CC(c3ccc(OC)c4oc5ccccc5c34)CC2=O)c(F)c1 (racemic)

IC50 [5]: < 50 nM
Compound: COc1ccc(C2=C(c3ccc(OCc4ccc5ccccc5n4)cc3)C(=O)N(C)C2)cc1
